Test results reported in article PMC7579840 (Journal of medicinal chemistry, 2019).
Read-outs that look alike come from different tables or passages of the source.

Legend:
[1] = test system: HeLa pEGFP-CK2α cells; assay: Subcellular localization of EGFP-CK2α, cell imaging; assay type: cell-based; details: 12 h
[2] = test system: panel of 54 kinases; details: overall selectivity; cited from earlier work
[3] = target: CK2α (Homo sapiens, UniProt P68400); details: previous hit compounds included for comparison; cited from earlier work
[4] = target: T1, human CK2α1−335 (Homo sapiens, UniProt P68400); assay: Isothermal titration calorimetry; assay type: binding; details: ITC
T1 sequence (P68400 1-335): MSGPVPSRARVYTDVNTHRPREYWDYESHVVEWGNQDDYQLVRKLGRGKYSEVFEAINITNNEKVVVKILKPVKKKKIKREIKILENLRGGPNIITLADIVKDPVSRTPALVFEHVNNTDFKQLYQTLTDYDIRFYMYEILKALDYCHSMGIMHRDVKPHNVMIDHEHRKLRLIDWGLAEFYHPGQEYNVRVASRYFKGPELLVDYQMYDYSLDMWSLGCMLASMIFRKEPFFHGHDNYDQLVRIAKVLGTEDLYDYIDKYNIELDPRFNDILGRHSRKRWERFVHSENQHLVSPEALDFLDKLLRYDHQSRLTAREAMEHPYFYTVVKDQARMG

[5] = target: CK2α2β2 (peptide substrate) (Homo sapiens, UniProt P68400); assay: Radiometric kinase assay with CK2α2β2, peptide substrate; assay type: biochemical; details: peptide 29 and peptide M substrates (Figure 2B)
[6] = test system: panel of 54 kinases; assay: Overall selectivity in kinase panel; details: 5 μM
[7] = target: Dyrk1A (Homo sapiens, UniProt Q13627); assay: Kinase selectivity panel; details: 5 μM 27

Sequence of CK2α (P68400 whole entry): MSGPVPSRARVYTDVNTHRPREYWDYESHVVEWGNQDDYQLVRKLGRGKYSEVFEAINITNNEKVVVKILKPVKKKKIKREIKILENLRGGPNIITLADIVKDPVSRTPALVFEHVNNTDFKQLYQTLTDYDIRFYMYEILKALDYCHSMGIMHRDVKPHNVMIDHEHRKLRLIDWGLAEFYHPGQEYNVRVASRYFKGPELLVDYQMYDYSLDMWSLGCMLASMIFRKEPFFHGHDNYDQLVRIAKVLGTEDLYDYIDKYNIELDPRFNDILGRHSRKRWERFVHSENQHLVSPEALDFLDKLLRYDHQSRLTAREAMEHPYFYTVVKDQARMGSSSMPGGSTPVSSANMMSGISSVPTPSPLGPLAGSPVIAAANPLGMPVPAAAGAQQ
Sequence of CK2α2β2 (peptide substrate) (P68400 whole entry): as above
Sequence of CK2α2β2 (peptide substrate) (P67870 whole entry partner): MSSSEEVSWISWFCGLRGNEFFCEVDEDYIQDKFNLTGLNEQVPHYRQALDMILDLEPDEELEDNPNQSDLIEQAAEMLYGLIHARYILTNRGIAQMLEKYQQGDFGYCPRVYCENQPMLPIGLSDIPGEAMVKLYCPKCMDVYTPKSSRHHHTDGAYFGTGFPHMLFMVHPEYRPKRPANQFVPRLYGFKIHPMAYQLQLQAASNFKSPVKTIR

O=C(O)c1ccc2c(c1)nc(Nc1cccc(Cl)c1)c1ccncc12 [CX-4945, 5-(3-chlorophenylamino)benzo[c][2,6]naphthyridine-8-carboxylic acid, reference compound]
subcellular localization of EGFP-CK2α ([1]; 8 μM): significant translocation of EGFP-CK2α from the nucleoli to the nuclear matrix and the cytoplasm compartments
Gini coefficient [2]: 0.67

O=C(O)c1cccc(Nc2nc(-c3cccc([N+](=O)[O-])c3)cs2)c1 [compound 1, 3-((4-(3-nitrophenyl)thiazol-2-yl)amino)benzoic acid]
IC50 [3]: 30 µM

O=C(O)c1ccc(Nc2nc(-c3ccc4ccccc4c3)cs2)cc1O [compound 27, 2-Hydroxy-4-((4-(naphthalen-2-yl)thiazol-2-yl)amino)benzoic acid]
subcellular localization of EGFP-CK2α ([1]; 15 μM): nucleolar localization pattern of EGFP-CK2α was mostly retained
TΔS [4]: 2.53 ± 0.29 kcal/mol
inhibition of holoenzyme complex compared with CK2α [5]: same potency
Gini coefficient [6]: 0.78
inhibition of Dyrk1A [7]: only weakly inhibited
